Where a name gives a salt, the structure may show the parent alone.

Results on 68 compounds are retold here after article PMC9297786 (Molecular Oncology, 2022).

One test has as its system K562. Kind of test: cells. Set-up: MTT cell growth inhibition assay, absorbance at 490 nm. The following applies: 48 h; inhibitor. How it is done:
Exponential‐phase cells were seeded into 96‐well plates at a density of 2 × 10^4 cells per well in complete medium. After 24 h, cells were treated with drugs at indicated concentrations and incubated for 48 h. Fresh medium containing 20 μL MTT solution (5 mg·mL^−1) was then added to each well. Then plates were incubated for another 4 h at 37 °C. After removing the medium, 150 μL DMSO was added to each well. The absorbance was recorded at 490 nm in the microplate reader and the inhibition ratio (I%) was calculated. The cell growth assay was conducted as described previously. K562 cells were cultured in IMDM containing 10% fetal bovine serum, 100 U·mL^−1 penicillin and 100 U·mL^−1 streptomycin. […] MEG‐01 cells were cultured in DMEM containing 10% fetal bovine serum, 100 U·mL^−1 penicillin and 100 U·mL^−1 streptomycin. […] Cells were grown at 37 °C in a humidified atmosphere with 5% CO2. […] To identify an EPHB4‐specific inhibitor with a potential of rapid translation into clinic, a pool of clinically approved TKIs and compounds was screened in this study (Fig. S2 and Table S4).
For the compound `CN1CC[C@]23c4c5ccc(O)c4O[C@H]2[C@@H](O)C=C[C@H]3[C@H]1C5` [morphine], the “Inhibition rate (%, 10 μM)” value was -46.72%.

The test is the same for the next values; noted with them: Homo sapiens, K562, 48 h, read-out: Inhibition rate (%, 10 μM).
For the compound `Nc1nc2c(ncn2COCCO)c(=O)[nH]1` [acyclovir], the inhibition at 10 µM was -42.6%.

`CN(C)C/C=C/C(=O)Nc1cc2c(Nc3ccc(F)c(Cl)c3)ncnc2cc1O[C@H]1CCOC1` [afatinib]: the inhibition at 10 µM was determined as 78.6%.

Take `COc1cc2nc(N(C)CCCNC(=O)C3CCCO3)nc(N)c2cc1OC` (centres unmarked) [alfuzosin]: the inhibition at 10 µM was -37.2%. Same read-out and setting: in the case of `NC12CC3CC(CC(C3)C1)C2` [amantadine] it was -58.8%. Same read-out and setting: with `CCOC(=O)C1=C(COCCN)NC(C)=C(C(=O)OC)C1c1ccccc1Cl` (centres unmarked) [amlodipine] the figure was -59.8%; with `COc1ccc(C[C@H]2COC(=O)[C@@H]2Cc2ccc(O[C@@H]3O[C@H](CO)[C@@H](O)[C@H](O)[C@H]3O)c(OC)c2)cc1OC` [arctiin], -62.6%. On the same count and under the same terms, with `C=C1C(=O)O[C@@]23[C@H]1CC[C@@H](C)[C@@H]2CC[C@@]1(C)O[C@@H]31` [arteannuin b] the figure was -8.46%; with `C[C@@H]1CC[C@H]2[C@@H](C)C(=O)O[C@@H]3O[C@@]4(C)CC[C@@H]1[C@]32OO4` [artemisinin], -161%; with `CN1CCCC(n2nc(Cc3ccc(Cl)cc3)c3ccccc3c2=O)CC1` (centres unmarked) [azelastine], -74.3%. Turning to `O=C(O)[C@H]1O[C@@H](Oc2cc3oc(-c4ccccc4)cc(=O)c3c(O)c2O)[C@H](O)[C@@H](O)[C@@H]1O` [baicalin], the inhibition at 10 µM was -31%. Same read-out and setting: with `CN(C)C(=O)Oc1cc(OC(=O)N(C)C)cc(C(O)CNC(C)(C)C)c1` (centres unmarked) [bambuterol] the figure was -43.1%; with `COc1ccc2cc3[n+](cc2c1OC)CCc1cc2c(cc1-3)OCO2` [berberine], 49.8%; with `COC(=O)CCc1ccc(OCC(O)CNC(C)C)cc1` (centres unmarked) [brevibloc], -12.6%. As to `CC(NC(C)(C)C)C(=O)c1cccc(Cl)c1` (centres unmarked) [bupropion], the inhibition at 10 µM is -48.5%. Same read-out and setting: with `COc1cc2nccc(Oc3ccc(NC(=O)C4(C(=O)Nc5ccc(F)cc5)CC4)cc3)c2cc1OC` [cabozantinib] the figure was 90.1%; with `CCOc1nc2cccc(C(=O)O)c2n1Cc1ccc(-c2ccccc2-c2nnn[nH]2)cc1` [candesartan], -49.7%.

For the compound `CN(C)CCC(c1ccc(Cl)cc1)c1ccccn1` (centres unmarked) [chlorpheniramine], the inhibition at 10 µM is -42.9%. Same read-out and setting: with `O=C(O)c1cn(C2CC2)c2cc(N3CCNCC3)c(F)cc2c1=O` [ciprofloxacin] the figure was -3.17%.

Turning to `CC(C)NCC(O)c1ccccc1Cl` (centres unmarked) [clorprenaline], the inhibition at 10 µM is -36.2%. Take `COc1ccc2c3c1O[C@H]1[C@@H](O)C=C[C@H]4[C@@H](C2)N(C)CC[C@@]341` [codeine]: the inhibition at 10 µM is -64%. On the same count and under the same terms, in the case of `C[C@H]1COC2=C1C(=O)C(=O)c1c2ccc2c1CCCC2(C)C` [cryptotanshinone] it was -72.9%. Still for that read-out and setting: in the case of `C[C@@H]1C(=O)O[C@H](C)[C@H]1C[C@@H](O)[C@](C)(O)[C@H]1CC[C@@]2(O)C3=CC(=O)[C@@H]4C[C@@H](O)[C@@H](O)C[C@]4(C)[C@H]3CC[C@]12C` [cyasterone] it was -50.6%.

For `CN1CCC(=C2c3ccccc3C=Cc3ccccc32)CC1` [cyproheptadine], the inhibition at 10 µM is -38.4%.

Turning to `COc1ccc2c(c1OC)CN1CCc3cc4c(cc3C1=C2)OCO4` [dihydroberberine], the inhibition at 10 µM turned out to be 30.6%. In the case of `CN(C)CCOC(c1ccccc1)c1ccccc1` [diphenhydramine], the inhibition at 10 µM was -37.9%. The same measure, in the same setting: in the case of `O=c1[nH]c2ccccc2n1CCCN1CCC(n2c(=O)[nH]c3cc(Cl)ccc32)CC1` [domperidone] it was -38.6%; in that of `NCCc1ccc(O)c(O)c1` [dopamine], -62.3%. On the same count and under the same terms, in the case of `COc1cc2nc(N3CCN(C(=O)C4COc5ccccc5O4)CC3)nc(N)c2cc1OC` (centres unmarked) [doxazosin] it was -84.5%; in that of `CN(C)CCC=C1c2ccccc2COc2ccccc21` [doxepin], -54.9%.

Regarding `Cc1cc(O)c2c(c1)C(=O)c1cc(O)cc(O)c1C2=O` [emodin], the inhibition at 10 µM was 6.9%.

For `CN[C@@H](C)[C@H](O)c1ccccc1` [ephedrine hydrochloride], the inhibition at 10 µM was -29%. With `C#Cc1cccc(Nc2ncnc3cc(OCCOC)c(OCCOC)cc23)c1` [erlotinib], the inhibition at 10 µM came to 3.52%. On the same count and under the same terms, in the case of `CC(Cc1ccc(O)cc1)NCC(O)c1cc(O)cc(O)c1` (centres unmarked) [fenoterol] it was -62%.

On to `CC(=O)Oc1ccc2c3c1O[C@H]1[C@@H](OC(C)=O)C=C[C@H]4[C@@H](C2)N(C)CC[C@@]341` [heroin], for which the inhibition at 10 µM was -30.2%. Same read-out and setting: with `COC(=O)C[C@](O)(CCCC(C)(C)O)C(=O)O[C@@H]1C(OC)=C[C@]23CCCN2CCc2cc4c(cc2[C@H]13)OCO4` [homoharringtonine] the figure was 68.7%.

As for `CC(C)=CCOc1c2occc2cc2ccc(=O)oc12` [imperatorin], the inhibition at 10 µM was -7.73%.

Take `CC(C)(C)NC(=O)[C@@H]1CN(Cc2cccnc2)CCN1C[C@@H](O)C[C@@H](Cc1ccccc1)C(=O)N[C@H]1c2ccccc2C[C@H]1O` [indinavir]: the inhibition at 10 µM was -52.2%.

Consider `CCCCC1=NC2(CCCC2)C(=O)N1Cc1ccc(-c2ccccc2-c2nnn[nH]2)cc1` [irbesartan], for which the inhibition at 10 µM was -56.4%.

Take `CC(C)=CCOc1c2ccoc2cc2oc(=O)ccc12` [isoimperatorin]: the inhibition at 10 µM was -85.9%. For the compound `O=C(/C=C/c1ccc(O)cc1)c1ccc(O)cc1O` [isoliquiritigenin], the inhibition at 10 µM is -123%. On the same count and under the same terms, in the case of `CS(=O)(=O)CCNCc1ccc(-c2ccc3ncnc(Nc4ccc(OCc5cccc(F)c5)c(Cl)c4)c3c2)o1` [lapatinib] it was 98.8%. Still for that read-out and setting: with `CCN(CC)CC(=O)Nc1c(C)cccc1C` [lidocaine] the figure was -38.5%; with `CCCCc1nc(Cl)c(CO)n1Cc1ccc(-c2ccccc2-c2nnn[nH]2)cc1` [losartan], -72.9%. Take `Cc1nnc(C(C)C)n1[C@@H]1C[C@H]2CC[C@@H](C1)N2CC[C@H](NC(=O)C1CCC(F)(F)CC1)c1ccccc1` [maraviroc]: the inhibition at 10 µM was -56.3%. On the same count and under the same terms, with `CC(=O)Oc1c(C)cc(OCC(O)CNC(C)C)c(C)c1C` (centres unmarked) [metipranolol] the figure was -26.8%; with `CN(c1nccc(=O)[nH]1)C1CCN(c2nc3ccccc3n2Cc2ccc(F)cc2)CC1` [mizolastine], -89.1%; with `COc1ccc([C@@H]2CC(=O)c3c(O)cc(O[C@@H]4O[C@H](CO)[C@@H](O)[C@H](O)[C@H]4O[C@@H]4O[C@@H](C)[C@H](O)[C@@H](O)[C@H]4O)cc3O2)cc1O` [neohesperidin], -49.4%. `Cc1ccnc2c1NC(=O)c1cccnc1N2C1CC1` [nevirapine]: the inhibition at 10 µM was -47%. As for `COC(=O)C1=C(C)NC(C)=C(C(=O)OCCN(C)Cc2ccccc2)C1c1cccc([N+](=O)[O-])c1` (centres unmarked) [nicardipine], the inhibition at 10 µM is -74.2%.

For the compound `COC(=O)C1=C(C)NC(C)=C(C(=O)OC)C1c1ccccc1[N+](=O)[O-]` [nifedipine], the inhibition at 10 µM was determined as 6.88%. The same measure, in the same setting: in the case of `Cc1cn(-c2cc(NC(=O)c3ccc(C)c(Nc4nccc(-c5cccnc5)n4)c3)cc(C(F)(F)F)c2)cn1` [nilotinib] it was 71.7%; in that of `COCCOC(=O)C1=C(C)NC(C)=C(C(=O)OC(C)C)C1c1cccc([N+](=O)[O-])c1` (centres unmarked) [nimodipine], -69.7%. For the compound `CCOC(=O)C1=C(C)NC(C)=C(C(=O)OC)C1c1cccc([N+](=O)[O-])c1` (centres unmarked) [nitrendipine], the inhibition at 10 µM was -26.4%. In the case of `Cc1cc2c(s1)Nc1ccccc1N=C2N1CCN(C)CC1` [olanzapine], the inhibition at 10 µM is -53.5%. The same measure, in the same setting: in the case of `CCCc1nc(C(C)(C)O)c(C(=O)O)n1Cc1ccc(-c2ccccc2-c2nnn[nH]2)cc1` [olmesartan] it was -34.8%. On the same count and under the same terms, in the case of `CCOC(=O)C1=C[C@@H](OC(CC)CC)[C@H](NC(C)=O)[C@@H](N)C1` [oseltamivir] it was -47.6%; in that of `COc1ccc2ccc(=O)oc2c1CC=C(C)C` [osthole], -21.2%; in that of `Cc1ccc(Nc2nccc(N(C)c3ccc4c(C)n(C)nc4c3)n2)cc1S(N)(=O)=O` [pazopanib], 76.2%.

As to `CCOC(=O)C1(c2ccccc2)CCN(C)CC1` [pethidine], the inhibition at 10 µM was -43.7%. For the compound `Cc1ccc(N(CC2=NCCN2)c2cccc(O)c2)cc1` [phentolamine], the inhibition at 10 µM is -43.1%. Take `CC(=O)Nc1ccc(OCC(O)CNC(C)C)cc1` (centres unmarked) [practolol]: the inhibition at 10 µM is -62.1%.

Turning to `CC(C)NC(=N)NC(=N)Nc1ccc(Cl)cc1` [proguanil], the inhibition at 10 µM was -7.92%. Turning to `O=c1ccc2cc3ccoc3cc2o1` [psoralen], the inhibition at 10 µM is -51.5%. `O=c1c(O)c(-c2ccc(O)c(O)c2)oc2cc(O)cc(O)c12` [quercetin]: the inhibition at 10 µM is -58.4%. The same measure, in the same setting: with `OCCOCCN1CCN(C2=Nc3ccccc3Sc3ccccc32)CC1` [quetiapine] the figure was -46.2%; with `CNC(=O)c1cc(Oc2ccc(NC(=O)Nc3ccc(Cl)c(C(F)(F)F)c3)c(F)c2)ccn1` [regorafenib], 8.49%.

Still in this test, the particulars now being: Homo sapiens, K562, 48 h; read-out: Inhibition rate (%, 10 μM).
For the compound `COc1cc2c(cc1OC)[C@@]13CCN4CC5=CCO[C@H]6CC(=O)N2[C@H]1[C@H]6[C@H]5C[C@H]43` [brucine], the inhibition at 10 µM was -63.5%.
